Article PMC5548886 (Cancer Medicine, 2017)
Where two headings read alike, the source gives them in different places.

Key:
BRAF V600E = conditions: read-out: EC50 for BRAF V600E; preclinical data; cited from earlier work
[1] = Pharmacokinetics, unchanged RAF265 in plasma; assay type: in vivo, human; conditions: for Cmin, Mean (SD): Steady State (average of troughs from Cycle 2 Day 1 onwards); for AUC(0-t) / Cmax / Tmax / half-life: human, plasma, oral; for AUC(0-t): read-out: AUC(0-tlast), Mean (SD); for Cmax: read-out: Cmax, Mean (SD); for Tmax: read-out: Tmax, Median
Description: PK parameters included the maximum observed concentration (C max), time to reach C max (T max), area under the curve from time 0 to last measurable concentration (AUClast), time point of the last measurable concentration (T last), and terminal half‐life of elimination phase (T 1/2). Cycle 1 Day 1 and day 15, reported PK parameters include C max, T max, AUClast and T last. Following log‐transformation, the PK parameters AUC and C max from the PK run‐in were analyzed separately using a mixed effects model fitting terms for dose and patient (Patient treated as a random factor)‐ln(PK parameter) = a + b*ln(Dose)+error. In this model, the dose‐exposure relationship is mainly characterized by the slope parameter b. A slope lower (higher) than 1 indicates an under (over) proportional dose‐exposure relationship. The point estimate and associated 90% CI for the slope parameter were determined for safety considerations.

[2] = test system: tumor metabolic activity (SUV); assay: Metabolic tumor response by 18[F]-FDG-PET; assay type: in vivo, human
Description: Pharmacodynamic markers were examined using peripheral blood samples, tumor and nevi biopsies (when available) and tumor imaging. BRAF mutation status was determined by Sanger sequencing. Pharmacodynamic markers analyzed, in available tumor/nevus samples obtained before treatment or archival tissue and during treatment on cycle 1, day 8 or day 15, including cytoplasmic p‐MEK, p‐ERK, BIM, c‐KIT, p‐AKT473, pS6 and PTEN, and nuclear p‐ERK, Ki‐67, PARP, cyclin D1, MITF, p27, and p53. Biomarker expression was determined by calculating the percentage of change in the H‐score (14) between on‐treatment and fresh/archival pretreatment specimens. Blood levels of VEGFR‐2 and were assessed before and at multiple time points while on treatment using enzyme‐linked immunosorbent assay (ELISA). […] Changes in standard uptake value (SUV) were determined by a blinded, independent central imaging review panel. Complete metabolic response (CMR) was complete resolution of tumor FDG‐PET uptake so SUV is the same as background. Partial metabolic response (PMR) decrease in sum of the tumor SUV of ≥25% from the baseline scan. Progressive metabolic disease (PMD) was defined as an increase in tumor SUV of ≥25% from the baseline scan, or the appearance of new FDG‐PET uptake in metastatic lesions. Stable metabolic disease (SMD) was defined as a change in tumor SUV between the PMR and PMD criteria.

[3] = 2 mg, Cycle 1 Day 15, DL 1, MD 2 mg
[4] = 3 mg, Cycle 1 Day 15, DL 2, MD 3 mg
[5] = 6 mg, Cycle 1 Day 15, DL 3, MD 6 mg
[6] = 8 mg, Cycle 1 Day 1, DL 1, LD 8 mg
[7] = 10 mg, First dose (PK run-in), DL 1, 10 mg
[8] = 12 mg, Cycle 1 Day 15, DL 4, MD 12 mg
[9] = 16 mg, Cycle 1 Day 1, DL 2, LD 16 mg
[10] = 20 mg, First dose (PK run-in), DL 2, 20 mg
[11] = 24 mg, Cycle 1 Day 15, DL 5, MD 24 mg
[12] = 29 mg, Cycle 1 Day 1, DL 3, LD 29 mg
[13] = 36 mg, First dose (PK run-in), DL 3, 36 mg
[14] = 48 mg, Cycle 1 Day 15, DL 6, MD 48 mg
[15] = 58 mg, Cycle 1 Day 1, DL 4, LD 58 mg
[16] = 67 mg, Cycle 1 Day 15, DL 7, MD 67 mg
[17] = 67 mg, Cycle 1 Day 15, DL 7.1, MD 67 mg
[18] = 72 mg, First dose (PK run-in), DL 4, 72 mg
[19] = 115 mg, Cycle 1 Day 1, DL 5, LD 115 mg
[20] = 144 mg, First dose (PK run-in), DL 5, 144 mg
[21] = 230 mg, Cycle 1 Day 1, DL 6, LD 230 mg
[22] = 288 mg, Cycle 1 Day 1, DL 7.1, LD 288 mg as three doses
[23] = 288 mg, First dose (PK run-in), DL 6, 288 mg
[24] = 322 mg, Cycle 1 Day 1, DL 7, LD 322 mg
[25] = 403 mg, First dose (PK run-in), DL 7, 403 mg

Cn1c(Nc2ccc(C(F)(F)F)cc2)nc2cc(Oc3ccnc(-c4ncc(C(F)(F)F)[nH]4)c3)ccc21 [RAF265]
Tlast, Median ([1]; Cycle 1 Day 1, DL 1, LD 8 mg): 25 h
Tlast, Median ([1]; Cycle 1 Day 1, DL 2, LD 16 mg): 22.9 h
Tlast, Median ([1]; Cycle 1 Day 1, DL 3, LD 29 mg): 23.8 h
Tlast, Median ([1]; Cycle 1 Day 1, DL 4, LD 58 mg): 24.4 h
Tlast, Median ([1]; Cycle 1 Day 1, DL 5, LD 115 mg): 24 h
Tlast, Median ([1]; Cycle 1 Day 1, DL 6, LD 230 mg): 24.1 h
Tlast, Median ([1]; Cycle 1 Day 1, DL 7, LD 322 mg): 24 h
Tlast, Median ([1]; Cycle 1 Day 1, DL 7.1, LD 288 mg as three doses): 23.8 h
Tlast, Median ([1]; Cycle 1 Day 15, DL 1, MD 2 mg): 25.3 h
Tlast, Median ([1]; Cycle 1 Day 15, DL 2, MD 3 mg): 22.5 h
Tlast, Median ([1]; Cycle 1 Day 15, DL 3, MD 6 mg): 24.1 h
Tlast, Median ([1]; Cycle 1 Day 15, DL 4, MD 12 mg): 24 h
Tlast, Median ([1]; Cycle 1 Day 15, DL 5, MD 24 mg): 24 h
Tlast, Median ([1]; Cycle 1 Day 15, DL 6, MD 48 mg): 23.7 h
Tlast, Median ([1]; Cycle 1 Day 15, DL 7, MD 67 mg): 23.4 h
Tlast, Median ([1]; Cycle 1 Day 15, DL 7.1, MD 67 mg): 23.8 h
Tlast, Median ([1]; First dose (PK run-in), DL 1, 10 mg): 168 h
Tlast, Median ([1]; First dose (PK run-in), DL 2, 20 mg): 168 h
Tlast, Median ([1]; First dose (PK run-in), DL 3, 36 mg): 168 h
Tlast, Median ([1]; First dose (PK run-in), DL 4, 72 mg): 167 h
Tlast, Median ([1]; First dose (PK run-in), DL 5, 144 mg): 167 h
Tlast, Median ([1]; First dose (PK run-in), DL 6, 288 mg): 167 h
Tlast, Median ([1]; First dose (PK run-in), DL 7, 403 mg): 168 h
Cmin, Mean (SD) ([1]; DL 1, MD 2 mg): 1.23 (0.22) ug/mL
Cmin, Mean (SD) ([1]; DL 2, MD 3 mg): 1.51 (0.82) ug/mL
Cmin, Mean (SD) ([1]; DL 3, MD 6 mg): 1.82 (0.28) ug/mL
Cmin, Mean (SD) ([1]; DL 4, MD 12 mg): 4.31 (1.22) ug/mL
Cmin, Mean (SD) ([1]; DL 5, MD 24 mg): 7.31 (1.99) ug/mL
Cmin, Mean (SD) ([1]; DL 6, MD 48 mg): 13.1 (5.57) ug/mL
Cmin, Mean (SD) ([1]; DL 7, MD 67 mg): 21.8 (3.76) ug/mL
Cmin, Mean (SD) ([1]; DL 7.1, MD 67 mg): 15.5 (7.47) ug/mL
dose dependence of mean Cmax and AUC ([1]; across dose levels): increased nearly proportionally with dose
AUC(0-t) [1, 3]: 2670 ng·h/mL
Cmax [1, 3]: 130 ng/mL
Tmax [1, 3]: 3 h
AUC(0-t) [1, 4]: 2300 ng·h/mL
Cmax [1, 4]: 120 ng/mL
Tmax [1, 4]: 3.07 h
AUC(0-t) [1, 5]: 4150 ng·h/mL
Cmax [1, 5]: 200 ng/mL
Tmax [1, 5]: 2.52 h
AUC(0-t) [1, 6]: 2080 ng·h/mL
Tmax [1, 6]: 4 h
AUC(0-t) [1, 7]: 6200 ng·h/mL
half-life ([1]; 10 mg, First dose (PK run-in), DL 1, 10 mg, read-out: T1/2, Median (converted)): 287 h
Tmax [1, 7]: 3 h
AUC(0-t) [1, 8]: 8590 ng·h/mL
Cmax [1, 8]: 420 ng/mL
Tmax [1, 8]: 5.13 h
AUC(0-t) [1, 9]: 2650 ng·h/mL
Cmax [1, 9]: 170 ng/mL
Tmax [1, 9]: 3 h
AUC(0-t) [1, 10]: 8770 ng·h/mL
Cmax [1, 10]: 150 ng/mL
half-life ([1]; 20 mg, First dose (PK run-in), DL 2, 20 mg, read-out: T1/2, Median (converted)): 209 h
Tmax [1, 10]: 2 h
AUC(0-t) [1, 11]: 16100 ng·h/mL
Cmax [1, 11]: 850 ng/mL
Tmax [1, 11]: 2.75 h
AUC(0-t) [1, 12]: 3930 ng·h/mL
Cmax [1, 12]: 276 ng/mL
Tmax [1, 12]: 3.53 h
AUC(0-t) [1, 13]: 12100 ng·h/mL
Cmax [1, 13]: 260 ng/mL
half-life ([1]; 36 mg, First dose (PK run-in), DL 3, 36 mg, read-out: T1/2, Median (converted)): 127 h
Tmax [1, 13]: 2.52 h
AUC(0-t) [1, 14]: 28500 ng·h/mL
Cmax [1, 14]: 1650 ng/mL
Tmax [1, 14]: 3.93 h
AUC(0-t) [1, 15]: 7280 ng·h/mL
Cmax [1, 15]: 500 ng/mL
Tmax [1, 15]: 3 h
AUC(0-t) [1, 16]: 46800 ng·h/mL
Cmax [1, 16]: 2650 ng/mL
Tmax [1, 16]: 4 h
AUC(0-t) [1, 17]: 35400 ng·h/mL
Cmax [1, 17]: 1830 ng/mL
Tmax [1, 17]: 3 h
AUC(0-t) [1, 18]: 22600 ng·h/mL
Cmax [1, 18]: 540 ng/mL
half-life ([1]; 72 mg, First dose (PK run-in), DL 4, 72 mg, read-out: T1/2, Median (converted)): 174 h
Tmax [1, 18]: 2.01 h
AUC(0-t) [1, 19]: 15700 ng·h/mL
Cmax [1, 19]: 1070 ng/mL
Tmax [1, 19]: 2 h
AUC(0-t) [1, 20]: 51800 ng·h/mL
Cmax [1, 20]: 1060 ng/mL
half-life ([1]; 144 mg, First dose (PK run-in), DL 5, 144 mg, read-out: T1/2, Median (converted)): 182 h
Tmax [1, 20]: 2.15 h
AUC(0-t) [1, 21]: 28100 ng·h/mL
Cmax [1, 21]: 2250 ng/mL
Tmax [1, 21]: 2.58 h
AUC(0-t) [1, 22]: 18400 ng·h/mL
Cmax [1, 22]: 1130 ng/mL
Tmax [1, 22]: 22.3 h
AUC(0-t) [1, 23]: 99800 ng·h/mL
Cmax [1, 23]: 2310 ng/mL
half-life ([1]; 288 mg, First dose (PK run-in), DL 6, 288 mg, read-out: T1/2, Median (converted)): 183 h
Tmax [1, 23]: 3 h
AUC(0-t) [1, 24]: 39000 ng·h/mL
Cmax [1, 24]: 2720 ng/mL
Tmax [1, 24]: 3 h
AUC(0-t) [1, 25]: 137000 ng·h/mL
Cmax [1, 25]: 2680 ng/mL
half-life ([1]; 403 mg, First dose (PK run-in), DL 7, 403 mg, read-out: T1/2, Median (converted)): 294 h
Tmax [1, 25]: 3 h
half-life ([1]; patients, read-out: half-life (converted)): ~192 h
half-life ([1]; patients, read-out: serum half-life (converted)): ~200 h
PMR, patients ([2]; BRAF WT disease, C1D15, 1 of 29): 3.4%
PMR, patients ([2]; BRAF mutant tumors, C1D15, 8 of 33): 24.2%
PMR, patients ([2]; BRAF-WT disease, C1D28, 3 of 28): 10.7%
PMR, patients ([2]; BRAF-mutant tumors, C1D28, 8 of 28): 28.6%
partial metabolic response (PMR), patients ([2]; C1D15, 10 of 65): 15.4%
progressive metabolic disease (PMD), patients ([2]; C1D15, 65 patients): 13.8%
stable metabolic disease (SMD), patients ([2]; C1D15, 65 patients): 70.8%
partial metabolic response (PMR), patients ([2]; C1D28, 58 evaluable patients, all dose levels): 20.7%
progressive metabolic disease (PMD), patients ([2]; C1D28, 58 patients): 17.2%
stable metabolic disease (SMD), patients ([2]; C1D28, 58 patients): 62.1%
patients with RECIST-defined responses who also had partial metabolic response ([2]; in vivo): Five of eight
